Patent publication US9139652B2, “Method for increasing M1 macrophages in a patient” (TRANSGENE SA, priority 2011, dated 2015)
Like-named read-outs stand apart in the source and are kept apart here.

What was measured:
[1] = test system: differentiating macrophages; experiment: Human macrophage differentiation assay: cytotoxicity / cell counts at day 6; assay type: cell-based
From the text: Cells were counted following a 6-day culture of monocytes with GM-CSF and CSF-1, in the presence or absence of anti-CD115 mAbs or F(ab′)2 or with GW2580. Controls included cultures treated with rituximab or rituximab F(ab′)2, or without any added compound.
Buffy coats were provided by the Etablissement Francais du Sang (EFS, Strasbourg). Peripheral blood mononucleated cells (PBMC) were obtained by centrifugation on a ficoll gradient. Monocytes were purified by immunomagnetic cell sorting, using CD14-antibody-coated beads (Miltenyii). […] Monocytes were differentiated for 6 days in 48-well plates (3×10^5 cells/well) in RPMI-Glutamax™ medium supplemented with 10% heat inactivated fetal calf serum and 1% tri-antibiotic mixture (penicillin, streptomycin, neomycin). GM-CSF (10 ng/ml) was added in the cell culture medium from day 0 to day 3. H27K15, other antibodies or internal control GW2580 (LC Labs) were added at day 0. On day 3 post-isolation, monocytes were washed with PBS and further cultivated in medium supplemented with CSF-1 (10 ng/ml) and GM-CSF (2 ng/ml), in the presence or absence of antibodies or GW2580. On day 6, supernatants were collected and stored at −20° C. Cells were detached from the plastic and pools of triplicates were analyzed by IC/FC (immunocytochemistry/flow cytometry) for cell sizes and expression of FcγR and CD86. Cytokines and chemokines were quantified in the culture supernatants by multiplex (Bioplex, Bio-Rad) or by ELISA.
Three different doses of mab H27K15 or isotype control rituximab (0.1; 1 or 10 μg/ml) were added to the culture medium at the beginning of the culture and again 3 days later. F(ab′)2 generated from H27K15 or from rituximab were tested in parallel at equivalent molar concentrations.
Cell viability was analyzed at day 6 by counting 5 microscope fields in each well of the plate (one in the center of the well and four fields at mid-distance between the center and the side of the well).

[2] = test system: IL-12p70 and IL-10 secretion by macrophages; experiment: Human macrophage differentiation assay: IL-12p70 and IL-10 in day-6 culture supernatants; assay type: cell-based; settings: for IL-12p70 secretion: detection limit 1 pg/ml
Description: IL-12p70 and IL-10 were titrated in the culture supernatants from day-6 macrophages differentiated in the presence of mAb H27K15 (1 μg/ml), GW2580 (1 μM) or their respective negative controls rituximab or no treatment. Left panel: IL-12p70 and IL-10 levels (pg/ml) in macrophage cultures from 3 blood donors. Right: IL-12p70 (pg/ml)/IL-10 (pg/ml) ratios were calculated for each blood donor and each culture condition. In samples where IL-12p70 was undetectable (below the detection limit of 1 pg/m)l, its level was arbitrarily set at 1 pg/ml for the calculation of IL-12p70/IL-10 ratios.
(§1) Buffy coats were provided by the Etablissement Francais du Sang (EFS, Strasbourg). Peripheral blood mononucleated cells (PBMC) were obtained by centrifugation on a ficoll gradient. Monocytes were purified by immunomagnetic cell sorting, using CD14-antibody-coated beads (Miltenyii). Enriched monocyte suspensions were more than 95% pure. Monocytes were differentiated for 6 days in 48-well plates (3×10^5 cells/well) in RPMI-Glutamax™ medium supplemented with 10% heat inactivated fetal calf serum and 1% tri-antibiotic mixture (penicillin, streptomycin, neomycin). GM-CSF (10 ng/ml) was added in the cell culture medium from day 0 to day 3. H27K15, other antibodies or internal control GW2580 (LC Labs) were added at day 0. On day 3 post-isolation, monocytes were washed with PBS and further cultivated in medium supplemented with CSF-1 (10 ng/ml) and GM-CSF (2 ng/ml), in the presence or absence of antibodies or GW2580. On day 6, supernatants were collected and stored at −20° C. Cells were detached from the plastic and pools of triplicates were analyzed by IC/FC (immunocytochemistry/flow cytometry) for cell sizes and expression of FcγR and CD86. Cytokines and chemokines were quantified in the culture supernatants by multiplex (Bioplex, Bio-Rad) or by ELISA.
To study whether mAb H27K15 could affect macrophage differentiation, purified CD14^+ monocytes were cultured for […] in the presence of GM-CSF and CSF-1, known to induce respectively M1- and M2-type macrophages (Akagawa K. S., 2002; Verreck F. A. et al., 2004). Three different doses of mab H27K15 or isotype control rituximab (0.1; 1 or 10 μg/ml) were added to the culture medium at the beginning of the culture and again 3 days later. F(ab′)2 generated from H27K15 or from rituximab were tested in parallel at equivalent molar concentrations. F(ab′)2 generated from mAb 1.2 SM (WO 2009/026303) was tested for comparison with the F(ab′)2 derived from H27K15 or rituximab. The known blocking mAb to human CD115, 2-4A5, or the non-blocking mAb 9-4D2 (Sherr C. J. et al., 1989) were assayed and compared with isotype control rat IgG1. […]

[3] = test system: CD64 (FcγRI) expression in human macrophages; experiment: Human macrophage differentiation assay: surface CD64 expression by IC/FC; assay type: cell-based; settings: day-6 macrophages, GW2580 vs no treatment
Description: Macrophages obtained following a 6-day culture of monocytes from 3 different blood donors with GM-CSF and CSF-1 were analyzed by IC/FC for surface expression of CD64. Upper panels: CD64 staining in cultures from donor 1 treated with monoclonal antibody H27K15 (left, bold line) or with GW2580 (right, bold line) or their respective negative controls rituximab (left, thin line) or no treatment (right, thin line). Lower panel: Medians of fluorescence intensities in macrophage cultures treated with test compounds at 10, 1 or 0.1 μg/ml* were compared with those in the corresponding negative controls: H27K15 vs rituximab, H27K15-derived F(ab′)2 vs rituximab-derived F(ab′)2, mAbs 2-4A5 or 9-4D2 vs rat IgG1, GW2580 vs no treatment. Percentages of reduction in CD64 expression were calculated as: 100−[100×Median fluorescence intensity with test compound/Median fluorescence intensity with control]. […]
(§2) Buffy coats were provided by the Etablissement Francais du Sang (EFS, Strasbourg). […] Cells were detached from the plastic and pools of triplicates were analyzed by IC/FC (immunocytochemistry/flow cytometry) for cell sizes and expression of FcγR and CD86. Cytokines and chemokines were quantified in the culture supernatants by multiplex (Bioplex, Bio-Rad) or by ELISA. […]

[4] = test system: CD86^bright SSC^low macrophage population; experiment: Human macrophage differentiation assay: CD86^bright SSC^low population by IC/FC; assay type: cell-based; settings: day-6 macrophages, GW2580 vs no treatment
Description: Upper panels: Dot plots showing CD86 staining (x-axis) and side scatter (SSC, y-axis) of macrophages from donor 3 differentiated for 6 days in the presence of H27K15 (left) or negative control rituximab (right). A gate was set on the CD86^bright SSC^low cell population induced by H27K15. Lower panel: Percentages of CD86^bright SSC^low cells with the test compounds at 10, 1 or 0.1 μg/ml* were compared with those in the corresponding negative controls: H27K15 vs rituximab, H27K15-derived F(ab′)2 vs rituximab-derived F(ab′)2, GW2580 vs no treatment. Percentages of increase in the CD86^bright SSC^low cell population were calculated as: 100×percentage of CD86^bright SSC^low cells with test compound/percentage of CD86^bright SSC^low cells with control. Shown are the mean percentages of increase in the CD86^bright SSC^low cell population from the 3 blood donors. *except for F(ab′)2: 6.6; 0.6; and 0.06 μg/ml.
as §2, with “Strasbourg). Peripheral blood mononucleated cells (PBMC) were obtained by centrifugation on a ficoll gradient.” for “Strasbourg).”

[5] = test system: MMP-9 production by monocytes cultured with GM-CSF and CSF-1; experiment: MMP-9 ELISA in day-6 supernatants of monocytes cultured with GM-CSF and CSF-1; assay type: cell-based, human; settings: GW2580, effect in 2 out of 3 donors
Description: FIG. 6. Monocytes isolated from 3 different blood donors were differentiated for 6 days in the presence of GM-CSF and CSF-1, with or without mAb H27K15, Rituximab or GW2580. MAb H27K15 or Rituximab (0.1, 1 or 10 μg/ml) or equimolar concentrations of F(ab)′2 derived from both mAbs were added to the cultures. MMP-9 was titrated by ELISA (R&D Systems) in day-6 culture supernatants.
(§3) Buffy coats were provided by the Etablissement Francais du Sang (EFS, Strasbourg). Peripheral blood mononucleated cells (PBMC) were obtained by centrifugation on a ficoll gradient. Monocytes were purified by immunomagnetic cell sorting, using CD14-antibody-coated beads (Miltenyii). Enriched monocyte suspensions were more than 95% pure. […] Cells were detached from the plastic and pools of triplicates were analyzed by IC/FC (immunocytochemistry/flow cytometry) for cell sizes and expression of FcγR and CD86. Cytokines and chemokines were quantified in the culture supernatants by multiplex (Bioplex, Bio-Rad) or by ELISA.
CD14^+ monocytes from 3 different donors were allowed to differentiate in the presence of both GM-CSF and CSF-1, known to induce macrophage differentiation towards respectively the M1- and M2-types. […] After 6 days of culture, MMP-9 concentrations were measured in the supernatants by ELISA (FIG. 6). […]

[6] = test system: MCP-1/CCL2 secretion by macrophages; experiment: Human macrophage differentiation assay: MCP-1 in day-6 culture supernatants; assay type: cell-based; settings: day-6 macrophage supernatants, GW2580 1 μM vs no treatment
Description: MCP-1 and IL-6 were titrated in the culture supernatants from day-6 macrophages differentiated in the presence of mAb H27K15 (1 μg/ml), GW2580 (1 μM) or their respective negative controls rituximab or no treatment. Percentages of reduction in MCP-1 (upper panel) or in IL-6 production (lower panel) were calculated for the 3 blood donors as: 100−[100×cytokine concentration with test compound (pg/ml)/cytokine concentration with control (pg/ml)].
as §1, with “H27K15, other antibodies or internal control GW2580 (LC Labs) were added at day 0. On day 3 post-isolation, monocytes were washed with PBS and further cultivated in medium supplemented with CSF-1 (10 ng/ml) and GM-CSF (2 ng/ml), in the presence or absence of antibodies or GW2580. On day 6, supernatants were collected and stored at −20° C.” left out, “ELISA. […]” for “ELISA.”

[7] = test system: CD163-positive M2-type macrophages; experiment: Flow cytometry of CD163-positive cells in day-6 macrophages; assay type: cell-based, human; settings: 3 donors
Description: FIG. 7 Cells obtained after 6-day culture with GM-CSF and CSF-1 were harvested and incubated for 20 min at 4° C. with PBS containing human IgG Fc fragments to saturate Fc receptors. Fluorochrome-conjugated mAbs (anti-CD14-PerCP-Cy5.5, anti-CD163-PE, anti-CD206-APC, anti-CD1a-FITC, BD Biosciences) were then incubated with each sample for 20 min at 4° C. FCM analysis was performed using a FACS LSR-II (BD biosciences) with the DIVA software. Data from 3 different blood donors are presented.
as §3, with “ELISA. […]” for “ELISA.”
The surface expression of CD163 was analyzed by flow cytometry in day-6 macrophages derived from human monocytes cultured with GM-CSF and CSF-1. […]

Rituximab F(ab′)2: F(ab′)2 produced by pepsine digestion of rituximab, negative control
Microscopical observation of day-6 cultures (cytotoxicity) ([1]; compared with untreated cells, independently of the blood donor, monocytes cultured with GM-CSF and CSF-1): no obvious differences

Rituximab: human IgG1 isotype control, obtained from Roche
Microscopical observation of day-6 cultures (cytotoxicity) [1]: no obvious differences | IL-12p70 secretion ([2]; 3 blood donors, mAb 1 μg/ml): did not produce any detectable IL-12p70

COc1ccc(COc2ccc(Cc3cnc(N)nc3N)cc2OC)cc1 [GW2580]
Surface expression of CD64 [3]: drastically reduced | Induction of CD86^bright SSC^low cell sub-population [4]: had appeared | MMP-9 production [5]: dose-dependent decrease | Suppression of MCP-1 production [6]: as efficacious as H27K15 | Microscopical observation of day-6 cultures (cytotoxicity) ([1]; 1 μM, all blood donors, debris and less density of cells): relative cytotoxicity | Macrophage number remaining at day 6 compared with untreated cultures ([1]; GW2580 1 μM, cell counts in 5 microscope fields (FIG. 1)): approximately 70% | Differentiation of the CD163+ macrophage population (CD163 expression) [7]: had the same effect in only ⅔ donors | IL-10 production ([2]; GW2580 1 μM): inhibition of IL-10 production | IL-12p70/IL-10 ratios ([2]; GW2580 1 μM vs no treatment): increased | IL-12p70 secretion ([2]; GW2580 1 μM): not detectable
